{"source": "patent US5990113A", "about": "“Monohydrates of aminobenzenesulfonic acid derivatives and method for preparing thereof” (priority 1995, dated 1999)", "key": {"[1]": {"conditions": "rat, in vivo", "procedure": "Using these values of AUC(0-.infin.) and the doses applied, the bioavailability was calculated according to the following Equation 1. [formula]"}, "[2]": {"experiment": "Hygroscopic property: weight change on storage in a desiccator", "type": "physicochemical", "conditions": "20° C.", "procedure": "Each of the samples of the monohydrate of the present invention was put in a desiccator adjusted at a relative humidity of 57% or 98%, and then stored at 20° C. for 16 days. Weight changes during the period of time were measured. As controls, the anhydrous crystals obtained in the above process (a) in Example 1 were also stored in a desiccator adjusted at a relative humidity of 57% or 98%, and weight changes were measured. The results are shown in Table 2 [in the table, each of the values (%) represents a weight increase]. […] On the other hand, as for the anhydrous crystal, the weight increase of about 7% was observed, which corresponded to about 1 mole of the water of crystal."}, "[3]": {"experiment": "Thermal analysis (TG-DTA)", "type": "physicochemical", "conditions": "dry nitrogen, 5° C./min", "procedure": "The anhydrous crystal described in Example 1 of the Japanese Patent Unexamined Publication (KOKAI) No.(Hei)3-7263/1991 and the monohydrate of the present invention were subjected to thermal analysis by a thermal analyzer (RIGAKU TAS-200) under dry nitrogen atmosphere using each of 10 mg of samples. The measurements were carried out in the temperature range of from 50 to 400° C. applying the temperature raising rate of 5° C./min. As the anhydrous crystals, those obtained in the above process (a) was used."}, "cardiac muscle cells": {"system": "cardiac muscle cells", "conditions": "cited from earlier work"}, "[4]": {"experiment": "Serum concentration (2): serum radioactivity after oral administration at several doses", "conditions": "male rats, Mean ± S.D (n = 5)"}, "[5]": {"experiment": "Stability and release of water of crystal of the monohydrate", "type": "physicochemical", "conditions": "for stability (in words): long period / room temperature / once formed, monohydrate"}, "[6]": {"conditions": "rat, in vivo", "remark": "listed apart in the source"}, "[7]": {"experiment": "Weight and appearance on further drying", "type": "physicochemical", "conditions": "further 27 hours, 50° C., 90 mmHg", "procedure": "The anhydrous crystal of 5-Methyl-2-(1-piperazinyl) benzenesulfonic acid (10.00 g) and distilled water (30 ml) were added in a 100 ml round-bottomed flask and the mixture was stirred at 5° C. for 2 hours. The crystals were collected from the suspension by suction filtration and the crystals remained in the round-bottomed flask were recovered by washing with distilled water (3 ml). The crystals were combined and dried at 50° C. and 90 mmHg for 3 hours to give 5-methyl-2-(1-piperazinyl)benzenesulfonic acid monohydrate as white crystals (10.36 g, yield: 96.8%). After drying was further continued for 27 hours under the same conditions, the weight and appearance of the monohydrate were not changed. Water content measured by a Karl Fischer water content meter was 6.96%, which further verified that the product was the monohydrate (calculated content: 6.56%).\nThe anhydrous crystal of 5-Methyl-2-(1-piperazinyl) benzenesulfonic acid (10.00 g) and distilled water (75 ml) were charged in a 200 ml round-bottomed flask and the crystals were thoroughly dissolved by heating under reflux with stirring. The solution was then cooled to 5° C. with stirring and stirring was further continued for 2 hours at the same temperature. […] Water content measured by a Karl Fischer water content meter was 6.75%, which further verified that the product was the monohydrate. […]"}}, "note": "“Also recorded” adds a separate entry of the source. Read-outs that look alike come from different tables or passages of the source."}
{"smiles": "Cc1ccc(N2CCNCC2)c(S(=O)(=O)O)c1", "note": "[Anhydrous crystal, 2-(1-piperazinyl)-5-methylbenzenesulfonic acid, reference compound]", "values": [{"measurement": "bioavailability, maximum value of fluctuation", "setting": "[1]; po, 0.94 mg/kg", "value": 43.72, "unit": "%"}, {"measurement": "bioavailability, minimum value of fluctuation", "setting": "[1]; po, 0.94 mg/kg", "value": 33.03, "unit": "%"}, {"measurement": "weight increase, 0 day", "setting": "[2]; 57% RH", "value": 0.00, "unit": "%"}, {"measurement": "weight increase, 1 day", "setting": "[2]; 57% RH", "value": 6.99, "unit": "%"}, {"measurement": "weight increase, 3 days", "setting": "[2]; 57% RH", "value": 7.08, "unit": "%"}, {"measurement": "weight increase, 16 days", "setting": "[2]; 57% RH", "value": 6.89, "unit": "%"}, {"measurement": "weight increase", "setting": "[2]; 57% and 98% RH, 16 days, about 1 mole of water of crystal", "value": "about 7%"}, {"measurement": "weight increase, 0 day", "setting": "[2]; 98% RH", "value": 0.00, "unit": "%"}, {"measurement": "weight increase, 1 day", "setting": "[2]; 98% RH", "value": 7.35, "unit": "%"}, {"measurement": "weight increase, 3 days", "setting": "[2]; 98% RH", "value": 7.36, "unit": "%"}, {"measurement": "weight increase, 16 days", "setting": "[2]; 98% RH", "value": 7.12, "unit": "%"}, {"measurement": "weight loss or thermal absorption peak due to release of the water of crystal (in words)", "setting": "[3]; below 100° C.", "value": "no weight loss or no thermal absorption peak"}]}
{"smiles": "Cc1ccc(N2CCNCC2)c(S(=O)(=O)O)c1", "note": "[Compound 2, 2-(1-piperazinyl)-5-methylbenzenesulfonic acid]", "values": [{"measurement": "inhibition of the inflow of calcium ions into cardiac muscle cells (in words)", "setting": "cardiac muscle cells", "value": "remarkably inhibits"}]}
{"smiles": "Cc1ccc(N2CCNCC2)c(S(=O)(=O)O)c1", "note": "[labeled compound, labeled 2-(1-piperazinyl)-5-methylbenzenesulfonic acid monohydrate]", "values": [{"measurement": "AUC(0-.infin.)", "setting": "[1]; iv, 0.3 mg/kg", "value": 816.28, "unit": "ng eq·h/ml"}, {"measurement": "AUC(0-.infin.)", "setting": "[1]; po, 1 mg/kg", "value": 1039.86, "unit": "ng eq·h/ml"}, {"measurement": "AUC", "setting": "[4]; oral 0.1 mg/kg", "value": "64.1 ± 12.3", "unit": "ng·h/mL"}, {"measurement": "C max", "setting": "[4]; oral 0.1 mg/kg", "value": "16.2 ± 2.6", "unit": "ng/mL"}, {"measurement": "T max", "setting": "[4]; oral 0.1 mg/kg", "value": "2.2 ± 0.5", "unit": "h"}, {"measurement": "t 1/2", "setting": "[4]; oral 0.1 mg/kg", "value": "1.77 ± 0.34", "unit": "h"}, {"measurement": "AUC", "setting": "[4]; oral 0.3 mg/kg", "value": "270.5 ± 88.4", "unit": "ng·h/mL"}, {"measurement": "C max", "setting": "[4]; oral 0.3 mg/kg", "value": "69.0 ± 17.8", "unit": "ng/mL"}, {"measurement": "T max", "setting": "[4]; oral 0.3 mg/kg", "value": "2.2 ± 0.5", "unit": "h"}, {"measurement": "t 1/2", "setting": "[4]; oral 0.3 mg/kg", "value": "1.33 ± 0.09", "unit": "h"}, {"measurement": "AUC", "setting": "[4]; oral 1 mg/kg", "value": "574.4 ± 113.2", "unit": "ng·h/mL"}, {"measurement": "C max", "setting": "[4]; oral 1 mg/kg", "value": "171.6 ± 31.1", "unit": "ng/mL"}, {"measurement": "T max", "setting": "[4]; oral 1 mg/kg", "value": "1.8 ± 0.5", "unit": "h"}, {"measurement": "t 1/2", "setting": "[4]; oral 1 mg/kg", "value": "1.64 ± 0.17", "unit": "h"}, {"measurement": "AUC", "setting": "[4]; oral 3 mg/kg", "value": "1769.2 ± 498.4", "unit": "ng·h/mL"}, {"measurement": "C max", "setting": "[4]; oral 3 mg/kg", "value": "501.5 ± 133.8", "unit": "ng/mL"}, {"measurement": "T max", "setting": "[4]; oral 3 mg/kg", "value": "2.0 ± 0.0", "unit": "h"}, {"measurement": "t 1/2", "setting": "[4]; oral 3 mg/kg", "value": "1.30 ± 0.08", "unit": "h"}]}
{"smiles": "Cc1ccc(N2CCNCC2)c(S(=O)(=O)O)c1.O", "note": "[Monohydrate, 5-methyl-2-(1-piperazinyl)benzenesulfonic acid monohydrate]", "values": [{"measurement": "heating temperature at which water of crystal is gradually released", "setting": "[5]; ambient or reduced pressure", "value": "≥ 60", "unit": "°C"}, {"measurement": "stability (in words)", "setting": "[5]; listed as monohydrate of 2-(1-piperazinyl)-5-methylbenzenesulfonic acid", "value": "stable at room temperature for a long period of time"}, {"measurement": "stability (in words)", "setting": "[5]", "value": "stable and free from weight variation by hygroscopicity; also recorded: stable for a long period of time"}, {"measurement": "serum concentration versus dose (in words)", "setting": "[6]", "value": "linear direct proportion to the dose of administration"}, {"measurement": "bioavailability", "setting": "[1]; po, 1 mg/kg", "value": 38, "unit": "%"}, {"measurement": "weight and appearance after further drying", "setting": "[7]", "value": "not changed"}, {"measurement": "weight increase, 0 day", "setting": "[2]; 57% RH", "value": 0.00, "unit": "%"}, {"measurement": "weight increase, 1 day", "setting": "[2]; 57% RH", "value": 0.11, "unit": "%"}, {"measurement": "weight increase, 3 days", "setting": "[2]; 57% RH", "value": 0.20, "unit": "%"}, {"measurement": "weight increase, 16 days", "setting": "[2]; 57% RH", "value": 0.21, "unit": "%"}, {"measurement": "weight change (in words)", "setting": "[2]; 57% and 98% RH, 16 days", "value": "No substantial weight change"}, {"measurement": "weight increase, 0 day", "setting": "[2]; 98% RH", "value": 0.00, "unit": "%"}, {"measurement": "weight increase, 1 day", "setting": "[2]; 98% RH", "value": 0.28, "unit": "%"}, {"measurement": "weight increase, 3 days", "setting": "[2]; 98% RH", "value": 0.40, "unit": "%"}, {"measurement": "weight increase, 16 days", "setting": "[2]; 98% RH", "value": 0.39, "unit": "%"}, {"measurement": "temperature from which weight loss and thermal absorption peak due to release of the water of crystal were observed", "setting": "[3]", "value": "around 60 °C"}, {"measurement": "weight loss due to release of the water of crystal", "setting": "[3]; 50 to 400° C.", "value": 6.57, "unit": "%"}]}
